From patent US20220251091A1, “AMORPHOUS UMBRALISIB MONOTOSYLATE” (Johnson Matthey Public Limited Company, priority 2019, published 2022)

Legend:
[1] = Dynamic vapor sorption (DVS); assay type: physicochemical; conditions: for hygroscopicity by DVS: 3 cycles
Description: (§1) DVS samples (5-10 mg) are analyzed using a TA Instruments Q5000 SA powerful dynamic vapor sorption analyzer. The relative humidity is started at about 50% and adjusted to between about 0-90% humidity with about a 10% increase or decrease in humidity for each step for 3 cycles. The weight of the sample is continuously monitored and recorded.

[2] = XRPD of the sample after DVS; assay type: physicochemical
Description: (§2) XRPD patterns are obtained using a Bruker D8 Advance equipped with a Cu Kα radiation source (λ=1.54 Å), a 9-position sample holder and a LYNXEYE super speed detector. Samples are placed on zero-background, silicon plate holders for analysis. One skilled in the art would recognize that the ° 20 values and the relative intensity values are generated by performing a peak search on the measured data and the d-spacing values are calculated by the instrument from the ° 20 values using Bragg's equation. One skilled in the art would further recognize that the relative intensity for the measured peaks may vary as a result of sample preparation, orientation and instrument used, for example.
as §1

[3] = XRPD after storage at about 40° C. under vacuum for about two weeks; assay type: physicochemical
Description: as §2

PI3K-delta = target: T1, PI3K-delta (Homo sapiens, UniProt O00329); conditions: Phase 2 trial, relapsed/refractory marginal zone lymphoma; cited from earlier work
T1 construct: host or cells: patients (clinical trial)
T1 sequence (O00329 whole entry): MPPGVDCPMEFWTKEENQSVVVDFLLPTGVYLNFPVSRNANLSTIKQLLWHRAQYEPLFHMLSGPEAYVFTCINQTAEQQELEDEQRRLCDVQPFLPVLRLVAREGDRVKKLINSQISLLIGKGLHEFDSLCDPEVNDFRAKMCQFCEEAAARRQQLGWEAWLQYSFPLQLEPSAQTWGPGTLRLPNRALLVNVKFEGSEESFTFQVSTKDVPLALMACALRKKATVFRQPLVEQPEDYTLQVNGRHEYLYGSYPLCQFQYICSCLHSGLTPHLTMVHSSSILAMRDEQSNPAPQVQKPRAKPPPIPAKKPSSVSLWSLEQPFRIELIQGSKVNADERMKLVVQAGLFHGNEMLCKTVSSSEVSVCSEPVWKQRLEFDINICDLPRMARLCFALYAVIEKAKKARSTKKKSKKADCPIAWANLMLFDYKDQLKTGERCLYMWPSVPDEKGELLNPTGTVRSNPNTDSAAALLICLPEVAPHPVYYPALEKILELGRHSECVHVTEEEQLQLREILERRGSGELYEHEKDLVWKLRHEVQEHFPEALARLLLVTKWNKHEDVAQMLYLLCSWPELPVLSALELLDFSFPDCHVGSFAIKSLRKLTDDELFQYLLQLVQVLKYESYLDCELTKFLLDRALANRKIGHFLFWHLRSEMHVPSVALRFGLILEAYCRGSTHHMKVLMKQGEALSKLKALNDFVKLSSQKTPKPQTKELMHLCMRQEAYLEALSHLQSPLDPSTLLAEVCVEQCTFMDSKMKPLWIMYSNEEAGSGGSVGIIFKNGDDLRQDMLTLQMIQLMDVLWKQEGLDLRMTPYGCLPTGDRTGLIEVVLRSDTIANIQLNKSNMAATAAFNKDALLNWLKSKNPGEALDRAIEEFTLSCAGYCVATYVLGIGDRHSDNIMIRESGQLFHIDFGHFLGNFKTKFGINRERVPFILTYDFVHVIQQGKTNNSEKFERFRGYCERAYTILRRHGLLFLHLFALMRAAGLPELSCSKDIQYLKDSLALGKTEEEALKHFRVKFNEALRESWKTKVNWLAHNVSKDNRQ
T1 sequence (P27986 whole entry partner): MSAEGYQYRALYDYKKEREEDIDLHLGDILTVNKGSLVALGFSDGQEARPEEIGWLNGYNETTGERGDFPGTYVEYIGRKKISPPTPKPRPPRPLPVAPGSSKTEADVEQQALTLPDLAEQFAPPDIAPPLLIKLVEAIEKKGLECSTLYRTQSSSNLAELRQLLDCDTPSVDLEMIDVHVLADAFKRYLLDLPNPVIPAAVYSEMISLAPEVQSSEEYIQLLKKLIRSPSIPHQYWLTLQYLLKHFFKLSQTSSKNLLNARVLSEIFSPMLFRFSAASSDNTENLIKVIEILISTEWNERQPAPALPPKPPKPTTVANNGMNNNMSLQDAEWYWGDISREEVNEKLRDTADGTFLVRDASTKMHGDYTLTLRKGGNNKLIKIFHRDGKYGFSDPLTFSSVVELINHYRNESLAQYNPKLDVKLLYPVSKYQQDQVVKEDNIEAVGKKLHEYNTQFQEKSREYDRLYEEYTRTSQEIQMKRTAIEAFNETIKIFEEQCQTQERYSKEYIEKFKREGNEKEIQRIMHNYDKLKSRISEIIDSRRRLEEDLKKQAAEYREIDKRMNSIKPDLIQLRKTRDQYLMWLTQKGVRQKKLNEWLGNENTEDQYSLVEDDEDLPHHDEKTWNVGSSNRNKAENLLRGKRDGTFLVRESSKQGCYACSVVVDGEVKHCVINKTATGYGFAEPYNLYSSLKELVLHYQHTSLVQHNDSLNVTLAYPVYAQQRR

CC(C)Oc1ccc(-c2nn([C@@H](C)c3oc4ccc(F)cc4c(=O)c3-c3cccc(F)c3)c3ncnc(N)c23)cc1F [Example 1, amorphous umbralisib monotosylate]
hygroscopicity by DVS [1]: hygroscopic
weight change between about 0-90% relative humidity [1]: ~4%
weight change in the sample over three cycles [1]: < 1%
solid form by XRPD after DVS [2]: still amorphous

CC(C)Oc1ccc(-c2nn([C@@H](C)c3oc4ccc(F)cc4c(=O)c3-c3cccc(F)c3)c3ncnc(N)c23)cc1F [Example 2, amorphous umbralisib monotosylate]
solid form by XRPD after storage [3]: still amorphous
hygroscopicity by DVS [1]: hygroscopic
weight change between about 0-90% relative humidity [1]: ~4%
weight change in the sample over three cycles [1]: ~0.5%
solid form by XRPD after DVS [2]: still amorphous

CC(C)Oc1ccc(-c2nn([C@@H](C)c3oc4ccc(F)cc4c(=O)c3-c3cccc(F)c3)c3ncnc(N)c23)cc1F [umbralisib, (S)-2-(1-(4-amino-3-(3-fluoro-4-isopropoxyphenyl)-1H-pyrazolo[3,4-d]pyrimidin-1-yl)ethyl)-6-fluoro-3-(3-fluorophenyl)-4H-chromen-4-one]
PI3K-delta inhibition in patients (PI3K-delta): effective PI3K-delta inhibition
tolerability in patients (PI3K-delta): well-tolerated
